# According to the supplement of paper PMC9663587:
# Experiments:
# [1] = compound: CCc1cnn2c(NCc3ccc[n+]([O-])c3)cc(N3CCCC[C@H]3CCO)nc12; experiment: GR value, 72 h; higher = faster growth (1 = untreated, <0 = killing);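 note: breast cancer and non-malignant breast epithelial lines, nine half-log doses, viable cells counted by Hoechst and LIVE/DEAD dye imaging versus time-zero plates and DMSO controls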
# YKL-5-124 = compound: C=CC(=O)Nc1ccc(C(=O)Nc2[nH]nc3c2CN(C(=O)N[C@H](CN(C)C)c2ccccc2)C3(C)C)cc1 [YKL-5-124]; experiment: as above
# [2] = compound: CC(=O)c1c(C)c2cnc(Nc3ccc(N4CCNCC4)cn3)nc2n(C2CCCC2)c1=O; experiment: as above
# Flavopiridol [3] = compound: T1, CN1CC[C@H](c2c(O)cc(O)c3c(=O)cc(-c4ccccc4Cl)oc23)[C@H](O)C1 [Flavopiridol]; experiment: as above
# THZ531 = compound: CN(C)C/C=C/C(=O)Nc1ccc(C(=O)N2CCC[C@@H](Nc3ncc(Cl)c(-c4c[nH]c5ccccc45)n3)C2)cc1 [THZ531]; experiment: as above
# LEE011/Ribociclib = compound: CN(C)C(=O)c1cc2cnc(Nc3ccc(N4CCNCC4)cn3)nc2n1C1CCCC1 [LEE011/Ribociclib]; experiment: as above
# [4] = compound: CCN1CCN(Cc2ccc(Nc3ncc(F)c(-c4cc(F)c5nc(C)n(C(C)C)c5c4)n3)nc2)CC1; experiment: as above
# BSJ-03-123 = compound: CC(=O)c1c(C)c2cnc(Nc3ccc(N4CCN(CCOCCOCCOCCNC(=O)COc5cccc6c5C(=O)N(C5CCC(=O)NC5=O)C6=O)CC4)cn3)nc2n(C2CCCC2)c1=O [BSJ-03-123]; experiment: as above
# Olaparib/AZD2281 = compound: O=C(c1cc(Cc2n[nH]c(=O)c3ccccc23)ccc1F)N1CCN(C(=O)C2CC2)CC1 [Olaparib/AZD2281]
# Paclitaxel = compound: CC(=O)O[C@H]1C(=O)[C@@]2(C)[C@H]([C@H](OC(=O)c3ccccc3)[C@]3(O)C[C@H](OC(=O)[C@H](O)[C@@H](NC(=O)c4ccccc4)c4ccccc4)C(C)=C1C3(C)C)[C@]1(OC(C)=O)CO[C@@H]1C[C@@H]2O [Paclitaxel]
# BSJ-01-175 = compound: CN(C)C/C=C/C(=O)Nc1ccc(O[C@@H]2CCC[C@@H](Nc3ncc(Cl)c(-c4c[nH]c5ccccc45)n3)C2)cc1 [BSJ-01-175]
# Flavopiridol [5] = compound: T1, Flavopiridol
# Taselisib/GDC0032 = compound: Cc1nc(-c2cn3c(n2)-c2ccc(-c4cnn(C(C)(C)C(N)=O)c4)cc2OCC3)n(C(C)C)n1 [Taselisib/GDC0032]
# Ipatasertib/GDC0068 = compound: CC(C)NC[C@@H](C(=O)N1CCN(c2ncnc3c2[C@H](C)C[C@H]3O)CC1)c1ccc(Cl)cc1 [Ipatasertib/GDC0068]
# Luminespib/NVP-AUY922 = compound: CCNC(=O)c1noc(-c2cc(C(C)C)c(O)cc2O)c1-c1ccc(CN2CCOCC2)cc1 [Luminespib/NVP-AUY922]
# ABT-737 = compound: CN(C)CC[C@H](CSc1ccccc1)Nc1ccc(S(=O)(=O)NC(=O)c2ccc(N3CCN(Cc4ccccc4-c4ccc(Cl)cc4)CC3)cc2)cc1[N+](=O)[O-] [ABT-737]
# Doxorubicin = compound: COc1cccc2c1C(=O)c1c(O)c3c(c(O)c1C2=O)C[C@@](O)(C(=O)CO)C[C@@H]3O[C@H]1C[C@H](N)[C@H](O)[C@H](C)O1 [Doxorubicin]
# 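Throughout, for GR50, 72 h: breast cancer and non-malignant breast epithelial cell lines, Deep Dye Drop or Dye Drop imaging, nine half-log doses, GR normalized to time-zero plates and DMSO-only controls.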
cell line,measurement,setting,value
CAL120,GR value,[1]; 0.0001 µM,1.01 GR
same,GR value,[1]; 0.0003162 µM,0.995 GR
same,GR value,[1]; 0.001 µM,1.03 GR
same,GR value,[1]; 0.003162 µM,1.01 GR
same,GR value,[1]; 0.01 µM,0.495 GR
same,GR value,[1]; 0.03162 µM,-0.0996 GR
same,GR value,[1]; 0.1 µM,-0.125 GR
same,GR value,[1]; 0.3162 µM,-0.129 GR
same,GR value,[1]; 1 µM,-0.116 GR
same,GR value,YKL-5-124; 0.001 µM,0.776 GR
same,GR value,YKL-5-124; 0.003162 µM,0.599 GR
same,GR value,YKL-5-124; 0.01 µM,0.467 GR
same,GR value,YKL-5-124; 0.03162 µM,0.385 GR
same,GR value,YKL-5-124; 0.1 µM,0.377 GR
same,GR value,YKL-5-124; 0.3162 µM,0.313 GR
same,GR value,YKL-5-124; 1 µM,0.328 GR
same,GR value,YKL-5-124; 3.162 µM,0.324 GR
same,GR value,YKL-5-124; 10 µM,0.187 GR
same,GR value,[2]; 0.0003162 µM,1.02 GR
same,GR value,[2]; 0.001 µM,1.01 GR
same,GR value,[2]; 0.003162 µM,0.992 GR
same,GR value,[2]; 0.01 µM,0.953 GR
same,GR value,[2]; 0.03162 µM,0.815 GR
same,GR value,[2]; 0.1 µM,0.756 GR
same,GR value,[2]; 0.3162 µM,0.761 GR
same,GR value,[2]; 1 µM,0.743 GR
same,GR value,[2]; 3.162 µM,0.671 GR
same,GR value,Flavopiridol [3]; 0.0001 µM,0.984 GR
same,GR value,Flavopiridol [3]; 0.0003162 µM,0.934 GR
same,GR value,Flavopiridol [3]; 0.001 µM,0.919 GR
same,GR value,Flavopiridol [3]; 0.003162 µM,0.917 GR
same,GR value,Flavopiridol [3]; 0.01 µM,0.901 GR
same,GR value,Flavopiridol [3]; 0.03162 µM,0.88 GR
same,GR value,Flavopiridol [3]; 0.1 µM,0.719 GR
same,GR value,Flavopiridol [3]; 0.3162 µM,0.342 GR
same,GR value,Flavopiridol [3]; 1 µM,-0.0548 GR
same,GR value,THZ531; 0.0001 µM,1.03 GR
same,GR value,THZ531; 0.0003162 µM,1.03 GR
same,GR value,THZ531; 0.001 µM,0.934 GR
same,GR value,THZ531; 0.003162 µM,1.04 GR
same,GR value,THZ531; 0.01 µM,1.06 GR
same,GR value,THZ531; 0.03162 µM,0.891 GR
same,GR value,THZ531; 0.1 µM,0.589 GR
same,GR value,THZ531; 0.3162 µM,0.275 GR
same,GR value,THZ531; 1 µM,-0.0063 GR
same,GR value,LEE011/Ribociclib; 0.001 µM,0.879 GR
same,GR value,LEE011/Ribociclib; 0.003162 µM,0.818 GR
same,GR value,LEE011/Ribociclib; 0.01 µM,0.765 GR
same,GR value,LEE011/Ribociclib; 0.03162 µM,0.809 GR
same,GR value,LEE011/Ribociclib; 0.1 µM,0.703 GR
same,GR value,LEE011/Ribociclib; 0.3162 µM,0.732 GR
same,GR value,LEE011/Ribociclib; 1 µM,0.646 GR
same,GR value,LEE011/Ribociclib; 3.162 µM,0.631 GR
same,GR value,LEE011/Ribociclib; 10 µM,0.664 GR
same,GR value,[4]; 0.001 µM,0.93 GR
same,GR value,[4]; 0.003162 µM,0.85 GR
same,GR value,[4]; 0.01 µM,0.715 GR
same,GR value,[4]; 0.03162 µM,0.659 GR
same,GR value,[4]; 0.1 µM,0.609 GR
same,GR value,[4]; 0.3162 µM,0.594 GR
same,GR value,[4]; 1 µM,0.377 GR
same,GR value,[4]; 3.162 µM,-0.0553 GR
same,GR value,[4]; 10 µM,-0.138 GR
same,GR value,BSJ-03-123; 0.001 µM,0.923 GR
same,GR value,BSJ-03-123; 0.003162 µM,0.923 GR
same,GR value,BSJ-03-123; 0.01 µM,0.969 GR
same,GR value,BSJ-03-123; 0.03162 µM,0.906 GR
same,GR value,BSJ-03-123; 0.1 µM,0.861 GR
same,GR value,BSJ-03-123; 0.3162 µM,0.9 GR
same,GR value,BSJ-03-123; 1 µM,0.755 GR
same,GR value,BSJ-03-123; 3.162 µM,0.759 GR
same,GR value,BSJ-03-123; 10 µM,0.234 GR
same,"GR50, 72 h",Olaparib/AZD2281,5.12 µM
same,"GR50, 72 h",Paclitaxel,0.00288 µM
same,"GR50, 72 h",BSJ-01-175,0.0411 µM
same,"GR50, 72 h",Flavopiridol [5],0.209 µM
same,"GR50, 72 h",Taselisib/GDC0032,2.53 µM
same,"GR50, 72 h",Ipatasertib/GDC0068,> 10 µM
same,"GR50, 72 h",Luminespib/NVP-AUY922,0.00281 µM
same,"GR50, 72 h",ABT-737,2.15 µM
same,"GR50, 72 h",Doxorubicin,0.00944 µM
